Measurements taken from patent publication US20100298141A1, “SUBSTITUTED PYRIDINE N-OXIDE HERBICIDES” (E. I. DU PONT DE NEMOURS AND COMPANY, priority 2007, published 2010).

Legend:
blackgrass = assay: Test C pre-/postemergence test; type: in vivo, Alopecurus myosuroides
Outline: (§1)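 Compounds in a non-phytotoxic solvent with surfactant applied preemergence to seeded pots and, at the same time, postemergence to plants 2–18 cm tall (1- to 4-leaf stage). Paddy tests: pots flooded to 3 cm, compound applied into the water, depth held throughout.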

corn = assay: Test C pre-/postemergence test; type: in vivo, Zea mays
Outline: as §1

woolly cupgrass = assay: Test C pre-/postemergence test; type: in vivo, Eriochloa villosa
Outline: as §1

bermudagrass = assay: Test F preemergence test; type: in vivo, Cynodon dactylon; settings: scale 0 to 100
Outline: (§2)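 Test chemicals were formulated in a non-phytotoxic solvent mixture with surfactant and applied preemergence to planted seeds or postemergence to sugarcane plants. Plants were kept in a greenhouse for 14 to 21 days, then visually evaluated against controls.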

Surinam grass = assay: Test F preemergence test; type: in vivo, Brachiaria decumbens; settings: scale 0 to 100
Outline: as §2

large crabgrass = assay: Test F preemergence test; type: in vivo, Digitaria sanguinalis; settings: scale 0 to 100
Outline: as §2

goosegrass = assay: Test F preemergence test; type: in vivo, Eleusine indica; settings: scale 0 to 100
Outline: as §2

kochia = assay: Test F preemergence test; type: in vivo, Kochia scoparia; settings: scale 0 to 100
Outline: as §2

purple nutsedge = assay: Test F preemergence test; type: in vivo, Cyperus rotundus; settings: scale 0 to 100
Outline: as §2

common ragweed = assay: Test F preemergence test; type: in vivo, Ambrosia elation; settings: scale 0 to 100
Outline: as §2

mustard = assay: Test F preemergence test; type: in vivo, Brassica nigra; settings: scale 0 to 100
Outline: as §2

barnyardgrass = assay: Test F preemergence test; type: in vivo, Echinochloa crus-galli
Outline: as §2

southern sandbur = assay: Test F preemergence test; type: in vivo, Cenchrus echinatus; settings: scale 0 to 100; for Plant response rating, Sandbur: Preemergence
Outline: as §2

Italian ryegrass = assay: Test F preemergence test; type: in vivo, Lolium multiflorum; settings: scale 0 to 100
Outline: as §2

broadleaf signalgrass = assay: Test F preemergence test; type: in vivo, Brachiaria platyphylla; settings: scale 0 to 100
Outline: as §2

quackgrass = assay: Test F preemergence test; type: in vivo, Elytrigia repens; settings: scale 0 to 100
Outline: as §2

[1] = 62 g ai/ha, Preemergence, scale 0 to 100
[2] = 125 g ai/ha, preemergence, scale 0 (no effect) to 100 (complete control)
[3] = Postemergence, 125 g ai/ha, scale 0 to 100, 0 no effect, 100 complete control
[4] = Postemergence, 250 g ai/ha, scale 0 to 100, 0 no effect, 100 complete control
[5] = Preemergence, 31 g ai/ha, scale 0 to 100 (0 no effect, 100 complete control)
[6] = preemergence, 250 g ai/ha, scale 0 (no effect) to 100 (complete control)

## CC(Oc1c(CS(=O)(=O)c2cccc[n+]2[O-])c(C(F)(F)F)nn1C)C(F)(F)F (stereo not shown) [Compound 82]
blackgrass; [1]
  Blackgrass plant response rating: 100
blackgrass; [2]
  Blackgrass plant response rating: 100
blackgrass; Postemergence, 31 g ai/ha
  Plant response rating (0 to 100), Blackgrass: 0
blackgrass; Postemergence, 62 g ai/ha
  Plant response rating (0 to 100), Blackgrass: 60
blackgrass; [3]
  Plant response rating, Blackgrass: 90
blackgrass; [4]
  Plant response rating, Blackgrass: 95
blackgrass; [5]
  Plant response rating, Blackgrass: 100
blackgrass; [6]
  Blackgrass plant response rating: 100
corn; [1]
  Corn plant response rating: 40
corn; [2]
  Corn plant response rating: 70
corn; Postemergence, 31 g ai/ha
  Plant response rating (0 to 100), Corn: 0
corn; Postemergence, 62 g ai/ha
  Plant response rating (0 to 100), Corn: 0
corn; [3]
  Plant response rating, Corn: 0
corn; [4]
  Plant response rating, Corn: 0
corn; [5]
  Plant response rating, Corn: 40
corn; [6]
  Corn plant response rating: 80
Woolly cupgrass; [1]
  Cupgrass, Woolly plant response rating: 90
Woolly cupgrass; [2]
  Cupgrass, Woolly plant response rating: 90
Woolly cupgrass; Postemergence, 31 g ai/ha
  Plant response rating (0 to 100), Cupgrass, Woolly: 0
Woolly cupgrass; Postemergence, 62 g ai/ha
  Plant response rating (0 to 100), Cupgrass, Woolly: 0
Woolly cupgrass; [3]
  Plant response rating, Cupgrass, Woolly: 20
Woolly cupgrass; [4]
  Plant response rating, Cupgrass, Woolly: 50
Woolly cupgrass; [5]
  Plant response rating, Cupgrass, Woolly: 80
Woolly cupgrass; [6]
  Cupgrass, Woolly plant response rating: 98
bermudagrass; 16 g ai/ha, preemergence
  Plant response rating, Bermudagrass: 0
bermudagrass; 125 g ai/ha, preemergence
  Bermudagrass plant response rating: 100
bermudagrass; Preemergence, 62 g ai/ha
  Plant response rating, Bermudagrass: 90
bermudagrass; Preemergence, 31 g ai/ha
  Plant response rating, Bermudagrass: 80
Surinam grass; 16 g ai/ha, preemergence
  Plant response rating, Surinam Grass: 0
Surinam grass; 125 g ai/ha, preemergence
  Surinam Grass plant response rating: 100
Surinam grass; Preemergence, 62 g ai/ha
  Plant response rating, Surinam Grass: 90
Surinam grass; Preemergence, 31 g ai/ha
  Plant response rating, Surinam Grass: 30
Large crabgrass; 16 g ai/ha, preemergence
  Plant response rating, Crabgrass, Large: 0
Large crabgrass; 125 g ai/ha, preemergence
  Crabgrass, Large plant response rating: 100
Large crabgrass; Preemergence, 62 g ai/ha
  Plant response rating, Crabgrass, Large: 90
Large crabgrass; Preemergence, 31 g ai/ha
  Plant response rating, Crabgrass, Large: 50
goosegrass; 16 g ai/ha, preemergence
  Plant response rating, Goosegrass: 15
goosegrass; 125 g ai/ha, preemergence
  Goosegrass plant response rating: 98
goosegrass; Preemergence, 62 g ai/ha
  Plant response rating, Goosegrass: 98
goosegrass; Preemergence, 31 g ai/ha
  Plant response rating, Goosegrass: 75
kochia; 16 g ai/ha, preemergence
  Plant response rating, Kochia: 100
kochia; 125 g ai/ha, preemergence
  Kochia plant response rating: 100
kochia; Preemergence, 62 g ai/ha
  Plant response rating, Kochia: 100
kochia; Preemergence, 31 g ai/ha
  Plant response rating, Kochia: 100
Purple nutsedge; 16 g ai/ha, preemergence
  Plant response rating, Purple Nutsedge: 0
Purple nutsedge; 125 g ai/ha, preemergence
  Purple Nutsedge plant response rating: 50
Purple nutsedge; Preemergence, 62 g ai/ha
  Plant response rating, Purple Nutsedge: 30
Common ragweed; 16 g ai/ha, preemergence
  Plant response rating, Ragweed: 0
Common ragweed; 125 g ai/ha, preemergence
  Ragweed plant response rating: 0
Common ragweed; Preemergence, 31 g ai/ha
  Plant response rating, Ragweed: 0
mustard; 16 g ai/ha, preemergence
  Plant response rating, Black Mustard: 0
mustard; 125 g ai/ha, preemergence
  Black Mustard plant response rating: 100
mustard; Preemergence, 62 g ai/ha
  Plant response rating, Black Mustard: 50
mustard; Preemergence, 31 g ai/ha
  Plant response rating, Black Mustard: 0
barnyardgrass; 16 g ai/ha, preemergence, scale 0 to 100 (0 no effect, 100 complete control)
  Plant response rating, Barnyardgrass: 50
barnyardgrass; 125 g ai/ha, preemergence, scale 0 to 100
  Barnyardgrass plant response rating: 100
barnyardgrass; Preemergence, 62 g ai/ha, scale 0 to 100
  Plant response rating, Barnyardgrass: 80
barnyardgrass; Preemergence, 31 g ai/ha, scale 0 to 100
  Plant response rating, Barnyardgrass: 70
Southern sandbur; 125 g ai/ha, preemergence
  Sandbur plant response rating: 95
Southern sandbur; 62 g ai/ha
  Plant response rating, Sandbur: 60
Southern sandbur; 31 g ai/ha
  Plant response rating, Sandbur: 60
Italian ryegrass; 16 g ai/ha, preemergence
  Plant response rating, Ryegrass, Italian: 35
Italian ryegrass; 125 g ai/ha, preemergence
  Ryegrass, Italian plant response rating: 100
Italian ryegrass; Preemergence, 62 g ai/ha
  Plant response rating, Ryegrass, Italian: 75
Italian ryegrass; Preemergence, 31 g ai/ha
  Plant response rating, Ryegrass, Italian: 75
Broadleaf signalgrass; 16 g ai/ha, preemergence
  Plant response rating, Signalgrass: 50
Broadleaf signalgrass; 125 g ai/ha, preemergence
  Signalgrass plant response rating: 100
Broadleaf signalgrass; Preemergence, 62 g ai/ha
  Plant response rating, Signalgrass: 100
Broadleaf signalgrass; Preemergence, 31 g ai/ha
  Plant response rating, Signalgrass: 50
quackgrass; 16 g ai/ha, preemergence
  Plant response rating, Quackgrass: 70
quackgrass; 125 g ai/ha, preemergence
  Quackgrass plant response rating: 100
quackgrass; Preemergence, 62 g ai/ha
  Plant response rating, Quackgrass: 95
quackgrass; Preemergence, 31 g ai/ha
  Plant response rating, Quackgrass: 70
